Data from patent US20210309978A1, “POLYNUCLEOTIDE SEQUENCE ENCODING A LOCAL SOURCED NOVEL ESTERASE” (ISTANBUL TEKNIK UNIVERSITESI, priority 2018, published 2021).

What was measured:
esterase enzyme [1] = test: Effect of metals on enzyme activity; type: biochemical, microflora of Ac1göl (Aci Lake); conditions: for Metal tolerance, This study: the enzyme of the invention in presence of metal ion
[2] = tested on: new true lipase isolated through metagenomic approach; conditions: literature enzyme in presence of metal ion; cited from earlier work
[3] = tested on: Salt-Tolerant Esterase from the Deep-Sea Sediment of the South China Sea; conditions: literature enzyme in presence of metal ion; cited from earlier work
[4] = tested on: thermophilic and halophilic esterase from Janibacter sp. R02; conditions: literature enzyme in presence of metal ion; cited from earlier work
esterase enzyme [5] = test: Effect of solutions (solvents) on enzyme activity; type: biochemical, microflora of Ac1göl (Aci Lake); conditions: for Effect of solutions on activity, Activity (%): 10% solution added into the reaction
Description: (§1) 6. […] The final concentration of the enzyme and substrate have been 1 μM and 1 mM respectively and absorbance measurements have been taken at 410 nm. The activity has been calculated by means of the below formula and one unit of activity has been defined as the enzyme amount which produces 1 μmol product in 1 minute.
(§2) Activity (U/L)=[(ΔAbs/t)/(ε*d)]*106*Vt/Vs • ΔAbs=Absorbance change; t=time (minute); ε=extinction coefficient (M−1 cm−1); d=light path (cm); Vt=total reaction volume; Vs=enzyme volume used in reaction.
(§3) Additionally, the effect of different solutions (hexane, chloroform, acetone, dimethyl formamide (DMF), dimethyl sulphoxide (DMSO), 2-propanol, butanol, 1-propanol, ethanol, methanol and glycerol) on the activity and stability of the enzyme have been measured. In the activity tests, 10% solution has been added into the reaction and in the stability tests the enzyme has been incubated for 24 hours in a buffer solution containing 15% and 30% solution.

esterase enzyme [6] = test: Effect of solutions (solvents) on enzyme stability (24 hours incubation); type: biochemical, microflora of Ac1göl (Aci Lake); conditions: for Effect of solutions on stability, Activity (%) 15% Solution: enzyme incubated 24 hours in buffer containing 15% solution; for Effect of solutions on stability, Activity (%) 30% Solution: enzyme incubated 24 hours in buffer containing 30% solution
Description: as §1, §2, §3

[7] = tested on: heavy metal-resistant, thermophilic esterase from a Red Sea Brine Pool; conditions: literature enzyme in presence of metal ion; cited from earlier work
esterase enzyme [8] = test: Effects of inhibitors and detergents on enzyme activity; type: biochemical, microflora of Ac1göl (Aci Lake)
esterase enzyme [9] = test: Effect of sodium chloride on enzyme stability (24 hours incubation); type: biochemical, microflora of Ac1göl (Aci Lake)
Description: (§4) 6. Standard activity test: Activity has been measured based on the pNP measurement that is obtained by the hydrolysis of the paranitfrophenol (pNP) esters by the enzyme (Winkler and Stuckmann, 1979). The final concentration of the enzyme and substrate have been 1 μM and 1 mM respectively and absorbance measurements have been taken at 410 nm. The activity has been calculated by means of the below formula and one unit of activity has been defined as the enzyme amount which produces 1 μmol product in 1 minute.
as §2
(§5) The effect of sodium chloride on the activity (5%, 10%, 15%, 20% and 25% NaCl) and the stability (10%, 15%, 20% and 25% NaCl) of the enzyme has been determined similarly. The enzyme has been incubated in a buffer solution comprising sodium chloride at the defined amounts for 24 hours during stability tests.

esterase enzyme [10] = test: Effect of sodium chloride on enzyme activity; type: biochemical, microflora of Ac1göl (Aci Lake)
Description: as §4, §2, §5

**Q.** Which “Activity (%) (1 mM metal)” value (esterase enzyme [1]) does the source give for `O=S(=O)([O-])[O-].[Fe+2]` [FeSO4] here?
**A.** Its value is 115.7 ± 2.3%.

**Q.** What about the “Activity (%) (5 mM metal)” value (esterase enzyme [1]) of the same molecule?
**A.** The value was 0.0%.

**Q.** With `[Fe+2]` [Fe^2+] as the molecule, how does the “Metal tolerance, Glogauer et al, 2011” value [2] read?
**A.** The value was 33.

**Q.** What about the “Metal tolerance, This study” value (esterase enzyme [1]) of the same molecule?
**A.** The value was 116.

**Q.** And the “Metal tolerance, Zhang et al, 2017” value [3]?
**A.** The value was 85.

**Q.** What about the “Metal tolerance, Castilla et al, 2017” value [4] of the same molecule?
**A.** The value was 55.

**Q.** Which results are given for `OCC(O)CO` [Glycerol, glycerol]?
**A.** Effect of solutions on activity, Activity (%) (esterase enzyme [5]): 104.2 ± 6.2%; increase of activity (esterase enzyme [5]; in the presence of 10% solvents): 4%; Effect of solutions on stability, Activity (%) 15% Solution (esterase enzyme [6]): 113.3 ± 1.8%; Effect of solutions on stability, Activity (%) 30% Solution (esterase enzyme [6]): 106.9 ± 3.1%

**Q.** For `CCCCCC` [Hexane, hexane], which “Effect of solutions on activity, Activity (%)” value (esterase enzyme [5]) is on record?
**A.** The value was 22.6 ± 4.9%.

**Q.** What about the “Effect of solutions on stability, Activity (%) 15% Solution” value (esterase enzyme [6]) of the same molecule?
**A.** Its value is 113.6 ± 8.5%.

**Q.** What about the “Effect of solutions on stability, Activity (%) 30% Solution” value (esterase enzyme [6]) of the same molecule?
**A.** The value was 100.2 ± 4.9%.

**Q.** With `[Cl-].[K+]` [KCl] as the molecule, how does the “Activity (%) (1 mM metal)” value (esterase enzyme [1]) read?
**A.** Its value is 127.9 ± 3.9%.

**Q.** What about the “Activity (%) (5 mM metal)” value (esterase enzyme [1]) of the same molecule?
**A.** Its value is 98.2 ± 3.4%.

**Q.** For `[K+]` [K^+], which “Metal tolerance, Glogauer et al, 2011” value [2] is on record?
**A.** The value was 122.

**Q.** And the “Metal tolerance, This study” value (esterase enzyme [1])?
**A.** The value was 128.

**Q.** And the “Metal tolerance, Zhang et al, 2017” value [3]?
**A.** Its value is 108.

**Q.** What about the “Metal tolerance, Castilla et al, 2017” value [4] of the same molecule?
**A.** Its value is 90.

**Q.** What does the source list for `CO` [Methanol, methanol]?
**A.** Effect of solutions on activity, Activity (%) (esterase enzyme [5]): 81.1 ± 1.1%; Effect of solutions on activity, Activity (%) (esterase enzyme [5]; listed as methanol): 81%; Effect of solutions on stability, Activity (%) 15% Solution (esterase enzyme [6]): 108.5 ± 0.2%; Effect of solutions on stability, Activity (%) 30% Solution (esterase enzyme [6]): 99.4 ± 6.6%

**Q.** Which results are given for `[Cl-].[Cl-].[Mg+2]` [MgCl2]?
**A.** Activity (%) (1 mM metal) (esterase enzyme [1]): 130.2 ± 0.6%; Activity (%) (5 mM metal) (esterase enzyme [1]): 104.6 ± 3%

**Q.** For `O=S(=O)([O-])[O-].[Mn+2]` [MnSO4], which “Activity (%) (1 mM metal)” value (esterase enzyme [1]) is on record?
**A.** Its value is 130.4 ± 0.4%.

**Q.** And the “Activity (%) (5 mM metal)” value (esterase enzyme [1])?
**A.** The value was 110.3 ± 3.5%.

**Q.** Which “Metal tolerance, Glogauer et al, 2011” value [2] does the source give for `[Mn+2]` [Mn^2+] here?
**A.** Its value is 47.

**Q.** What about the “Metal tolerance, This study” value (esterase enzyme [1]) of the same molecule?
**A.** Its value is 130.

**Q.** What about the “Metal tolerance, Zhang et al, 2017” value [3] of the same molecule?
**A.** Its value is 76.

**Q.** What about the “Metal tolerance, Mohamed et al, 2013” value [7] of the same molecule?
**A.** The value was 112.

**Q.** What about the “Metal tolerance, Castilla et al, 2017” value [4] of the same molecule?
**A.** The value was 75.

**Q.** With `[Cl][Ni][Cl]` [NiCl2] as the molecule, how does the “Activity (%) (1 mM metal)” value (esterase enzyme [1]) read?
**A.** The value was 110.4 ± 6.1%.

**Q.** And the “Activity (%) (5 mM metal)” value (esterase enzyme [1])?
**A.** Its value is 0.5%.

**Q.** Which results are given for `[Ni+2]` [Ni^2+]?
**A.** Metal tolerance, Glogauer et al, 2011 [2]: 66; Metal tolerance, This study (esterase enzyme [1]): 110; Metal tolerance, Zhang et al, 2017 [3]: 68; Metal tolerance, Castilla et al, 2017 [4]: 75

**Q.** With `O=S(=O)(F)Cc1ccccc1` [PMSF, phenylmethanesulfonyl fluoride] as the molecule, how does the “Activity (%) (1 mM inh.)” value (esterase enzyme [8]) read?
**A.** The value was 1.3 ± 0.1%.

**Q.** What about the “Activity (%) (5 mM inh.)” value (esterase enzyme [8]) of the same molecule?
**A.** The value was 0.2%.

**Q.** Which “Activity (%) (1 mM inh.)” value (esterase enzyme [8]) does the source give for `CCCCCCCCCCCCOS(=O)(=O)[O-].[Na+]` [SDS, sodium dodecyl sulphate] here?
**A.** The value was 85.6 ± 2.9%.

**Q.** And the “Activity (%) (5 mM inh.)” value (esterase enzyme [8])?
**A.** Its value is 5.0 ± 0.8%.

**Q.** Which “Activity (%) (1 mM metal)” value (esterase enzyme [1]) does the source give for `O=S(=O)([O-])[O-].[Zn+2]` [ZnSO4] here?
**A.** Its value is 6.1 ± 3.1%.

**Q.** And the “Activity (%) (5 mM metal)” value (esterase enzyme [1])?
**A.** The value was 1.3 ± 1.2%.

**Q.** With `[Zn+2]` [Zn^2+] as the molecule, how does the “Metal tolerance, Glogauer et al, 2011” value [2] read?
**A.** The value was 45.

**Q.** And the “Metal tolerance, This study” value (esterase enzyme [1])?
**A.** The value was 6.

**Q.** And the “Metal tolerance, Zhang et al, 2017” value [3]?
**A.** The value was 25.

**Q.** And the “Metal tolerance, Mohamed et al, 2013” value [7]?
**A.** The value was 85.

**Q.** What about the “Metal tolerance, Castilla et al, 2017” value [4] of the same molecule?
**A.** Its value is 160.

**Q.** For `[Mg+2]` [mg^2+], which “Metal tolerance, Glogauer et al, 2011” value [2] is on record?
**A.** Its value is 65.

**Q.** And the “Metal tolerance, This study” value (esterase enzyme [1])?
**A.** Its value is 130.

**Q.** What about the “Metal tolerance, Zhang et al, 2017” value [3] of the same molecule?
**A.** The value was 97.

**Q.** And the “Metal tolerance, Mohamed et al, 2013” value [7]?
**A.** The value was 91.

**Q.** What about the “Metal tolerance, Castilla et al, 2017” value [4] of the same molecule?
**A.** Its value is 160.

**Q.** For `[Cl-].[Na+]` [sodium chloride], which “The effect of sodium chloride on stability, Activity (%)” value (“The effect … on stability, Activity (%)” for short) (esterase enzyme [9]; Concentration 10.0 %) is on record?
**A.** Its value is 100 ± 4.8%.

**Q.** And the “The effect … on stability, Activity (%)” value (esterase enzyme [9]; Concentration 15.0 %)?
**A.** Its value is 99 ± 1.8%.

**Q.** What about the “The effect … on stability, Activity (%)” value (esterase enzyme [9]; Concentration 20.0 %) of the same molecule?
**A.** The value was 102.7 ± 1%.

**Q.** What about the “The effect … on stability, Activity (%)” value (esterase enzyme [9]; Concentration 25.0 %) of the same molecule?
**A.** The value was 101.4 ± 4.5%.

**Q.** What about the “The effect of sodium chloride on activity, Activity (%)” value (“The effect … on activity, Activity (%)” below) (esterase enzyme [10]; Concentration 1 %) of the same molecule?
**A.** Its value is 100 ± 1.9%.

**Q.** And the “The effect … on activity, Activity (%)” value (esterase enzyme [10]; Concentration 5 %)?
**A.** The value was 90.2 ± 2.1%.

**Q.** And the “The effect … on activity, Activity (%)” value (esterase enzyme [10]; Concentration 10 %)?
**A.** The value was 79.2 ± 5%.

**Q.** And the “The effect … on activity, Activity (%)” value (esterase enzyme [10]; Concentration 15 %)?
**A.** The value was 52 ± 5.3%.

**Q.** And the “The effect … on activity, Activity (%)” value (esterase enzyme [10]; Concentration 20 %)?
**A.** The value was 39.2 ± 6.3%.

**Q.** What does the source list for NP-40?
**A.** Activity (%) (1 mM inh.) (esterase enzyme [8]): 101.9 ± 6.8%; Activity (%) (5 mM inh.) (esterase enzyme [8]): 89.1 ± 1.5%

**Q.** With Triton X-100 as the molecule, how does the “Activity (%) (1 mM inh.)” value (esterase enzyme [8]) read?
**A.** The value was 105.3 ± 2.4%.

**Q.** What about the “Activity (%) (5 mM inh.)” value (esterase enzyme [8]) of the same molecule?
**A.** The value was 87.7 ± 3.2%.

**Q.** What does the source list for Tween-80?
**A.** Activity (%) (1 mM inh.) (esterase enzyme [8]): 107.2 ± 7.9%; Activity (%) (5 mM inh.) (esterase enzyme [8]): 80.7 ± 2.2%

**Q.** What does the source list for butanol?
**A.** Effect of solutions on activity, Activity (%) (esterase enzyme [5]): 3.3 ± 3.3%; Effect of solutions on stability, Activity (%) 15% Solution (esterase enzyme [6]): 97.1 ± 3.3%; Effect of solutions on stability, Activity (%) 30% Solution (esterase enzyme [6]): 104.9 ± 2.4%
